What was measured:
Type in all cases: in vivo
[1] = tested on: barnyardgrass (Echinochloa crus-galli); experiment: Test A preemergence soil spray, visual injury rating 0-100; settings: 10 days, 0 = no effect, 100 = complete control
How it was run: (§1)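 Visual injury ratings (0, no effect; 100, complete control) were assigned relative to untreated plants 10 days after treatment. Test chemicals, formulated with a surfactant-containing non-phytotoxic solvent, were applied in loam-sand soil either as a directed soil spray before emergence or to emerged plants, and plants were kept in a greenhouse.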

[2] = tested on: blackgrass (Alopecurus myosuroides); experiment: as above; settings: 10 days, 0 = no effect, 100 = complete control
How it was run: as §1

corn (Zea mays) [3] = experiment: as above; settings: 10 days, 0 = no effect, 100 = complete control
How it was run: as §1

[4] = tested on: green foxtail (Setaria viridis); experiment: as above; settings: 10 days, 0 = no effect, 100 = complete control
How it was run: as §1

kochia (Bassia scoparia) [5] = experiment: as above; settings: 10 days, 0 = no effect, 100 = complete control
How it was run: as §1

[6] = tested on: oat, wild (wild oat, Avena fatua); experiment: as above; settings: 10 days, 0 = no effect, 100 = complete control
How it was run: as §1

[7] = tested on: palmer (palmer amaranth, palmer pigweed, Amaranthus palmeri); experiment: as above; settings: 10 days, 0 = no effect, 100 = complete control
How it was run: as §1

[8] = tested on: ragweed (common ragweed, Ambrosia artemisiifolia); experiment: as above; settings: 10 days, 0 = no effect, 100 = complete control
How it was run: as §1

[9] = tested on: ryegrass, Italian (italian ryegrass, Lolium multiflorum); experiment: as above; settings: 10 days, 0 = no effect, 100 = complete control
How it was run: as §1

soybean (Glycine max) [10] = experiment: as above; settings: 10 days, 0 = no effect, 100 = complete control
How it was run: as §1

[11] = tested on: wheat (Triticum aestivum); experiment: as above; settings: 10 days, 0 = no effect, 100 = complete control
How it was run: as §1

[12] = tested on: barnyardgrass (Echinochloa crus-galli); experiment: Test A postemergence application, visual injury rating 0-100; settings: 10 days
How it was run: as §1

[13] = tested on: blackgrass (Alopecurus myosuroides); experiment: as above; settings: 10 days
How it was run: as §1

corn (Zea mays) [14] = experiment: as above; settings: 10 days
How it was run: as §1

[15] = tested on: galium (catchweed bedstraw, Galium aparine); experiment: as above; settings: 10 days
How it was run: as §1

[16] = tested on: green foxtail (Setaria viridis); experiment: as above; settings: 10 days
How it was run: as §1

[17] = tested on: horseweed (Erigeron canadensis); experiment: as above; settings: 10 days
How it was run: as §1

kochia (Bassia scoparia) [18] = experiment: as above; settings: 10 days
How it was run: as §1

[19] = tested on: oat, wild (wild oat, Avena fatua); experiment: as above; settings: 10 days
How it was run: as §1

[20] = tested on: palmer (palmer amaranth, palmer pigweed, Amaranthus palmeri); experiment: as above; settings: 10 days
How it was run: as §1

[21] = tested on: ragweed (common ragweed, Ambrosia artemisiifolia); experiment: as above; settings: 10 days
How it was run: as §1

[22] = tested on: ryegrass, Italian (italian ryegrass, Lolium multiflorum); experiment: as above; settings: 10 days
How it was run: as §1

soybean (Glycine max) [23] = experiment: as above; settings: 10 days
How it was run: as §1

[24] = tested on: wheat (Triticum aestivum); experiment: as above; settings: 10 days
How it was run: as §1

[25] = tested on: barnyardgrass (Echinochloa crusgalli); experiment: Test B flooded paddy test, visual plant response rating 0-100; settings: 250 g ai/ha, Flood, applied to paddy water, evaluated after 13 days
How it was run: (§2)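 Compounds applied to standing paddy water (3 cm above soil, maintained for the test duration) on 2-leaf-stage plants; visual rating vs controls at 13 days, greenhouse.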

[26] = tested on: ducksalad (Heteranthera limosa); experiment: as above; settings: 250 g ai/ha, Flood, applied to paddy water, evaluated after 13 days
How it was run: as §2

rice (Oryza sativa) = experiment: as above; settings: 250 g ai/ha, Flood, applied to paddy water, evaluated after 13 days
How it was run: as §2

[27] = tested on: sedge, umbrella (small-flower umbrella sedge, Cyperus difformis); experiment: as above; settings: 250 g ai/ha, Flood, applied to paddy water, evaluated after 13 days
How it was run: as §2

[28] = 31 g ai/ha, postemergence, 0 = no effect, 100 = complete control
[29] = Postemergence, 125 g ai/ha, 0 is no effect, 100 is complete control

**Q.** For `CC1(C(=O)NC2CC=C(C(=O)OCC(F)(F)F)C2)CN(c2cc(F)cc(F)c2)C(=O)O1` (single isomer, unassigned) [Compound 24], which “Barnyardgrass plant response rating (0-100)” value ([1]; 31 g ai/ha) is on record?
**A.** 10

**Q.** What about the “Barnyardgrass plant response rating (0 to 100 scale)” value ([1]; 125 g ai/ha) of the same compound?
**A.** 10

**Q.** And the “Blackgrass plant response rating (0-100)” value ([2]; 31 g ai/ha)?
**A.** 0

**Q.** What about the “Blackgrass plant response rating (0 to 100 scale)” value ([2]; 125 g ai/ha) of the same compound?
**A.** 0

**Q.** What about the “Corn plant response rating (0-100)” value (corn (Zea mays) [3]; 31 g ai/ha) of the same compound?
**A.** 0

**Q.** And the “Corn plant response rating (0 to 100 scale)” value (corn (Zea mays) [3]; 125 g ai/ha)?
**A.** 0

**Q.** And the “Foxtail, Green plant response rating (0-100)” value ([4]; 31 g ai/ha)?
**A.** 50

**Q.** What about the “Foxtail, Green plant response rating (0 to 100 scale)” value ([4]; 125 g ai/ha) of the same compound?
**A.** 50

**Q.** And the “Kochia plant response rating (0-100)” value (kochia (Bassia scoparia) [5]; 31 g ai/ha)?
**A.** 0

**Q.** And the “Kochia plant response rating (0 to 100 scale)” value (kochia (Bassia scoparia) [5]; 125 g ai/ha)?
**A.** 0

**Q.** And the “Oat, Wild plant response rating (0-100)” value ([6]; 31 g ai/ha)?
**A.** 0

**Q.** What about the “Oat, Wild plant response rating (0 to 100 scale)” value ([6]; 125 g ai/ha) of the same compound?
**A.** 20

**Q.** And the “Amaranth, Palmer plant response rating (0-100)” value ([7]; 31 g ai/ha)?
**A.** 30

**Q.** What about the “Amaranth, Palmer plant response rating (0 to 100 scale)” value ([7]; 125 g ai/ha) of the same compound?
**A.** 70

**Q.** What about the “Ragweed plant response rating (0-100)” value ([8]; 31 g ai/ha) of the same compound?
**A.** 0

**Q.** What about the “Ragweed plant response rating (0 to 100 scale)” value ([8]; 125 g ai/ha) of the same compound?
**A.** 10

**Q.** And the “Ryegrass, Italian plant response rating (0-100)” value ([9]; 31 g ai/ha)?
**A.** 0

**Q.** And the “Ryegrass, Italian plant response rating (0 to 100 scale)” value ([9]; 125 g ai/ha)?
**A.** 0

**Q.** And the “Soybean plant response rating (0-100)” value (soybean (Glycine max) [10]; 31 g ai/ha)?
**A.** 0

**Q.** What about the “Soybean plant response rating (0 to 100 scale)” value (soybean (Glycine max) [10]; 125 g ai/ha) of the same compound?
**A.** 10

**Q.** And the “Wheat plant response rating (0-100)” value ([11]; 31 g ai/ha)?
**A.** 0

**Q.** What about the “Wheat plant response rating (0 to 100 scale)” value ([11]; 125 g ai/ha) of the same compound?
**A.** 70

**Q.** And the “Barnyardgrass plant response rating (0-100)” value [12, 28]?
**A.** 20

**Q.** What about the “Barnyardgrass plant response rating (0 to 100 scale)” value [12, 29] of the same compound?
**A.** 80

**Q.** And the “Blackgrass plant response rating (0-100)” value [13, 28]?
**A.** 0

**Q.** And the “Blackgrass plant response rating (0 to 100 scale)” value [13, 29]?
**A.** 60

**Q.** What about the “Corn plant response rating (0-100)” value (corn (Zea mays) [14]; [28]) of the same compound?
**A.** 10

**Q.** And the “Corn plant response rating (0 to 100 scale)” value (corn (Zea mays) [14]; [29])?
**A.** 90

**Q.** And the “Galium plant response rating (0-100)” value [15, 28]?
**A.** 40

**Q.** What about the “Galium plant response rating (0 to 100 scale)” value [15, 29] of the same compound?
**A.** 80

**Q.** And the “Foxtail, Green plant response rating (0-100)” value [16, 28]?
**A.** 0

**Q.** And the “Foxtail, Green plant response rating (0 to 100 scale)” value [16, 29]?
**A.** 60

**Q.** What about the “Horseweed plant response rating (0-100)” value [17, 28] of the same compound?
**A.** 20

**Q.** What about the “Horseweed plant response rating (0 to 100 scale)” value [17, 29] of the same compound?
**A.** 10

**Q.** What about the “Kochia plant response rating (0-100)” value (kochia (Bassia scoparia) [18]; [28]) of the same compound?
**A.** 20

**Q.** What about the “Kochia plant response rating (0 to 100 scale)” value (kochia (Bassia scoparia) [18]; [29]) of the same compound?
**A.** 90

**Q.** And the “Oat, Wild plant response rating (0-100)” value [19, 28]?
**A.** 10

**Q.** What about the “Oat, Wild plant response rating (0 to 100 scale)” value [19, 29] of the same compound?
**A.** 60

**Q.** And the “Amaranth, Palmer plant response rating (0-100)” value [20, 28]?
**A.** 0

**Q.** What about the “Amaranth, Palmer / Pigweed, Palmer plant response rating (0 to 100 scale)” value [20, 29] of the same compound?
**A.** 40

**Q.** What about the “Ragweed plant response rating (0-100)” value [21, 28] of the same compound?
**A.** 20

**Q.** What about the “Ragweed plant response rating (0 to 100 scale)” value [21, 29] of the same compound?
**A.** 30

**Q.** And the “Ryegrass, Italian plant response rating (0-100)” value [22, 28]?
**A.** 40

**Q.** What about the “Ryegrass, Italian plant response rating (0 to 100 scale)” value [22, 29] of the same compound?
**A.** 60

**Q.** And the “Soybean plant response rating (0-100)” value (soybean (Glycine max) [23]; [28])?
**A.** 0

**Q.** And the “Soybean plant response rating (0 to 100 scale)” value (soybean (Glycine max) [23]; [29])?
**A.** 60

**Q.** What about the “Wheat plant response rating (0-100)” value [24, 28] of the same compound?
**A.** 30

**Q.** And the “Wheat plant response rating (0 to 100 scale)” value [24, 29]?
**A.** 90

**Q.** What about the “Plant response rating, Barnyardgrass (0 to 100 scale, 0 is no effect and 100 is complete control)” value [25] of the same compound?
**A.** 0

**Q.** What about the “Plant response rating, Ducksalad (0 to 100 scale, 0 is no effect and 100 is complete control)” value [26] of the same compound?
**A.** 0

**Q.** What about the “Plant response rating, Rice (0 to 100 scale, 0 is no effect and 100 is complete control)” value (rice (Oryza sativa)) of the same compound?
**A.** 0

**Q.** And the “Plant response rating, Sedge, Umbrella (0 to 100 scale, 0 is no effect and 100 is complete control)” value [27]?
**A.** 0
